The record followed here is patent US20070185161A1, “Bicyclic substituted indole-derivative steroid hormone nuclear receptor modulators” (priority 2004, published 2007).

As usually defined, the Ki is the equilibrium dissociation constant of an inhibitor or competing ligand from its target.

This assay deals with T1, human GR (glucocorticoid receptor) (Homo sapiens, UniProt P04150).
T1 construct: expressed in transfected cells; host or cells: 293 cells
T1 sequence (P04150 1-777): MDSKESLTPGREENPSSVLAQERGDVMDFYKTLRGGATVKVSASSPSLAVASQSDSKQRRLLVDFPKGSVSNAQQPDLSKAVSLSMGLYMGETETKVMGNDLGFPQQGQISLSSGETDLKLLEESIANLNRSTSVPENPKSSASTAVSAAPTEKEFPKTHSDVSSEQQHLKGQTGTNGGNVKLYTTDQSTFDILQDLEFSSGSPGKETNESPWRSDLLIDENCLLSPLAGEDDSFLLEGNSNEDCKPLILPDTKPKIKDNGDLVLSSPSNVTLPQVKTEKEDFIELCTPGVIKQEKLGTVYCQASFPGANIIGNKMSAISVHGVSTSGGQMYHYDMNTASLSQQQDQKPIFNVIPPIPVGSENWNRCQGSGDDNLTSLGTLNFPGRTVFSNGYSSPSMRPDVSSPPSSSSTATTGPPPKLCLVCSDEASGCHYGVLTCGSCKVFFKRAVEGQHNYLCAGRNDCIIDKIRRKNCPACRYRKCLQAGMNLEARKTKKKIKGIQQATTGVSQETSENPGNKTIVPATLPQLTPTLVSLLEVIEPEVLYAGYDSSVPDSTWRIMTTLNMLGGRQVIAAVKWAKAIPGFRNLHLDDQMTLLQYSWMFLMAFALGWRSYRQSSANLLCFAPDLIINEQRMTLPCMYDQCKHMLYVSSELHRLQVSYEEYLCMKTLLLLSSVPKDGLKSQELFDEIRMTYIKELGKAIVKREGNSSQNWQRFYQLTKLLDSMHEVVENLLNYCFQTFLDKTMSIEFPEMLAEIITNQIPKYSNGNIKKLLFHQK
The experiment in a line: Alternative Binding Assay Protocol (Method 2), GR. As to conditions: 3H-dexamethasone, 293-GR lysate, racemic mixture unless otherwise indicated. The procedure: Cell lysates from 293 cells overexpressing human GR (glucocorticoid receptor), AR (androgen receptor), MR (mineralocorticoid receptor) or PR (progesterone receptor) are used for competition binding assays to determine Ki values for test compounds. Briefly, competition binding assays are run in a buffer containing 20 mM Hepes, pH 7.6, 0.2 mM EDTA, 75 mM NaCl, 1.5 mM MgCl2, 20% glycerol, 20 mM sodium molybdate, 0.2 mM DTT, 20 ug/ml aprotinin and 20 ug/ml leupeptin, using either 0.3 nM ^3H-dexamethasone for GR binding, 0.36 nM ^3H-methyltrienolone for AR binding, 0.25 nM ^3H-aldosterone for MR binding, or 0.29 nM ^3H-methyltrienolone for PR binding, and either 20 ug 293-GR lysate, 22 ug 293-AR lysate, 20 ug 293-MR lysate or 40 ug 293-PR lysate per well. Competing compounds are added at various concentraions in half-log increments. Non-specific binding is determined in the presence of 500 nM dexamethasone for GR binding, 500 nM aldosterone for MR binding, or 500 nM methyltrienolone for AR and PR binding,. The binding reaction (140 μl) is incubated for overnight at […], then 70 μl of cold charcoal-dextran buffer (containing per 50 ml of assay buffer, 0.75 g of charcoal and 0.25 g of dextran) is added to each reaction. Plates are mixed 8 minutes on an orbital shaker at 4° C. Plates are then centrifuged at 3,000 rpm at 4° C. for 10 minutes. An aliquot of 120 μl of the mix is transferred to another 96-well plate and 175 μl of Wallac Optiphase “Hisafe 3” scintillation fluid is added to each well. Plates are sealed and shaken vigorously on an orbital shaker. After an incubation of 2 hrs, plates are read in a Wallac Microbeta counter. The data is used to calculate an IC50 and % Inhibition at 10 μM. The Kd for ^3H-dexamethasone for GR binding, ^3H-methyltrienolone for AR binding, ^3H-aldosterone for MR binding, or ^3H-methyltrienolone for PR binding, is determined by saturation binding. The IC50 values for compounds are converted to Ki using Cheng-Prusoff equation and the Kd determined by saturation binding assay.

For `CC1(c2c[nH]c3c(NS(C)(=O)=O)cccc23)CCc2cc(F)cc(F)c21` (racemic) [Example 22, N-[3-(5,7-Difluoro-1-methyl-indan-1-yl)-1H-indol-7-yl]-methanesulfonamide], the inhibition constant (Ki) was at most 500 nM. As for `CC1(c2c[nH]c3c(NS(C)(=O)=O)cccc23)CCOc2cc(F)ccc21` (racemic) [Example 34, N-[3-(7-Fluoro-4-methyl-chroman-4-yl)-1H-indol-7-yl]-methanesulfonamide], the inhibitory constant (Ki) is at most 500 nM.

Regarding `CCC1(c2c[nH]c3c(NS(C)(=O)=O)cccc23)CCOc2cc(F)ccc21` (racemic) [Example 35, N-[3-(4-Ethyl-7-fluoro-chroman-4-yl)-1H-indol-7-yl]-methanesulfonamide], the Ki is at most 500 nM. Next, `CCC1(c2c[nH]c3c(NS(C)(=O)=O)cccc23)CCOc2cc(F)cc(F)c21` (racemic) [Example 36, N-[3-(4-Ethyl-5,7-difluoro-chroman-4-yl)-1H-indol-7-yl]-methanesulfonamide]: at most 500 nM. In the case of `CS(=O)(=O)Nc1cccc2c(C3(C4CC4)CCc4cc(F)ccc43)c[nH]c12` (racemic) [Example 39, N-[3-(1-Cyclopropyl-5-fluoro-indan-1-yl)-1H-indol-7-yl]-methanesulfonamide], the inhibition constant Ki is at most 500 nM.

`CS(=O)(=O)Nc1cccc2c(C3(CCCO)CCc4cc(F)ccc43)c[nH]c12` (racemic) [Example 40, N-{3-[5-Fluoro-1-(3-hydroxy-propyl)-indan-1-yl]-1H-indol-7-yl}-methanesulfonamide]: the Ki is at most 500 nM. As for `CC1(c2c[nH]c3c(NS(C)(=O)=O)cccc23)CCc2cc(F)cc(F)c21` (single isomer, unassigned) [Example 22A, N-[3-(5,7-Difluoro-1-methyl-indan-1-yl)-1H-indol-7-yl]-methanesulfonamide], the inhibitory constant (Ki) was at most 500 nM. Next, `CC1(c2c[nH]c3c(NS(C)(=O)=O)cccc23)CCc2cc(F)cc(F)c21` (single isomer, unassigned) [Example 22B, N-[3-(5,7-Difluoro-1-methyl-indan-1-yl)-1H-indol-7-yl]-methanesulfonamide]: at most 500 nM; `CC1(c2c[nH]c3c(NS(C)(=O)=O)cccc23)CCOc2cc(F)ccc21` (single isomer, unassigned) [Example 34A, N-[3-(7-Fluoro-4-methyl-chroman-4-yl)-1H-indol-7-yl]-methanesulfonamide]: at most 500 nM; `CC1(c2c[nH]c3c(NS(C)(=O)=O)cccc23)CCOc2cc(F)ccc21` (single isomer, unassigned) [Example 34B, N-[3-(7-Fluoro-4-methyl-chroman-4-yl)-1H-indol-7-yl]-methanesulfonamide]: at most 500 nM.

With `CCC1(c2c[nH]c3c(NS(C)(=O)=O)cccc23)CCOc2cc(F)ccc21` (single isomer, unassigned) [Example 35A, N-[3-(4-Ethyl-7-fluoro-chroman-4-yl)-1H-indol-7-yl]-methanesulfonamide], the Ki was at most 500 nM. Next, `CCC1(c2c[nH]c3c(NS(C)(=O)=O)cccc23)CCOc2cc(F)ccc21` (single isomer, unassigned) [Example 35B, N-[3-(4-Ethyl-7-fluoro-chroman-4-yl)-1H-indol-7-yl]-methanesulfonamide]: at most 500 nM. Next, `CCC1(c2c[nH]c3c(NS(C)(=O)=O)cccc23)CCOc2cc(F)cc(F)c21` (single isomer, unassigned) [Example 36A, N-[3-(4-Ethyl-5,7-difluoro-chroman-4-yl)-1H-indol-7-yl]-methanesulfonamide]: at most 500 nM; `CCC1(c2c[nH]c3c(NS(C)(=O)=O)cccc23)CCOc2cc(F)cc(F)c21` (single isomer, unassigned) [Example 36B, N-[3-(4-Ethyl-5,7-difluoro-chroman-4-yl)-1H-indol-7-yl]-methanesulfonamide]: at most 500 nM.

Turning to `CS(=O)(=O)Nc1cccc2c(C3(C4CC4)CCc4cc(F)ccc43)c[nH]c12` (single isomer, unassigned) [Example 39A, N-[3-(1-Cyclopropyl-5-fluoro-indan-1-yl)-1H-indol-7-yl]-methanesulfonamide], the inhibition constant Ki is at most 500 nM. `CS(=O)(=O)Nc1cccc2c(C3(C4CC4)CCc4cc(F)ccc43)c[nH]c12` (single isomer, unassigned) [Example 39B, N-[3-(1-Cyclopropyl-5-fluoro-indan-1-yl)-1H-indol-7-yl]-methanesulfonamide]: the Ki was at most 500 nM. In the case of `CS(=O)(=O)Nc1cccc2c(C3(CCCO)CCc4cc(F)ccc43)c[nH]c12` (single isomer, unassigned) [Example 40A, N-{3-[5-Fluoro-1-(3-hydroxy-propyl)-indan-1-yl]-1H-indol-7-yl}-methanesulfonamide], the Ki is at most 500 nM.

Take `CS(=O)(=O)Nc1cccc2c(C3(CCCO)CCc4cc(F)ccc43)c[nH]c12` (single isomer, unassigned) [Example 40B, N-{3-[5-Fluoro-1-(3-hydroxy-propyl)-indan-1-yl]-1H-indol-7-yl}-methanesulfonamide]: the inhibitory constant (Ki) is at most 500 nM. With `CCC1(c2c[nH]c3c([N+](=O)[O-])cccc23)CCc2cc(F)ccc21` (stereo not shown) [Example 2, 3-(1-Ethyl-5-fluoro-indan-1-yl)-7-nitro-1H-indole], the inhibition constant (Ki) is at most 500 nM. Under `CCC1(c2cn(C)c3c(NS(C)(=O)=O)cccc23)CCc2cc(F)ccc21` (stereo not shown) [Example 5, N-[3-(1-Ethyl-5-fluoro-indan-1-yl)-1-methyl-1H-indol-7-yl]-methanesulfonamide] stands at most 500 nM. Regarding `CCC1(c2c[nH]c3c(N)cccc23)CCc2cc(F)ccc21` (stereo not shown) [Example 14, 3-(1-Ethyl-5-fluoro-indan-1-yl)-1H-indol-7-ylamine], the Ki was at most 1000 nM. Under `CCC1(c2c[nH]c3c(NC(=O)OC)cccc23)CCc2cc(F)ccc21` (stereo not shown) [Example 15, [3-(1-Ethyl-5-fluoro-indan-1-yl)-1H-indol-7-yl]-carbamic acid methyl ester] stands at most 500 nM. As for `CCC1(c2c[nH]c3c(NC(C)=O)cccc23)CCc2cc(F)ccc21` (stereo not shown) [Example 16, N-[3-(1-ethyl-5-fluoro-indan-1-yl)-1H-indol-7-yl]-acetamide], the inhibition constant Ki is at most 500 nM.

Turning to `CCC1(c2c[nH]c3c(NS(=O)(=O)N(C)C)cccc23)CCc2cc(F)ccc21` (stereo not shown) [Example 17], the inhibition constant (Ki) was at most 500 nM. As for `CCC1(c2c[nH]c3c(NS(=O)(=O)c4ccccc4)cccc23)CCc2cc(F)ccc21` (stereo not shown) [Example 18, N-[3-(1-ethyl-5-fluoro-indan-1-yl)-1H-indol-7-yl]-benzenesulfonamide], the inhibition constant (Ki) is at most 500 nM. Next, `CCC1(c2c[nH]c3c(NS(=O)(=O)CC)cccc23)CCc2cc(F)ccc21` (stereo not shown) [Example 19, Ethanesulfonic acid [3-(1-ethyl-5-fluoro-indan-1-yl)-1H-indol-7-yl]-amide]: at most 500 nM; `CS(=O)(=O)Nc1cccc2c(C3(CCCI)CCc4cc(F)ccc43)c[nH]c12` (stereo not shown) [Example 41, N-{3-[5-Fluoro-1-(3-iodo-propyl)-indan-1-yl]-1H-indol-7-yl}-methanesulfonamide]: at most 500 nM.

In the case of `CNCCCC1(c2c[nH]c3c(NS(C)(=O)=O)cccc23)CCc2cc(F)ccc21` (stereo not shown) [Example 42, N-{3-[5-Fluoro-1-(3-methylamino-propyl)-indan-1-yl]-1H-indol-7-yl}-methanesulfonamide], the Ki was at most 500 nM.
